Key:
[1] = system: cholinesterase (ChE), resistant strain; type: biochemical, green rice leafhopper, Nephotettix cincticeps; settings: for Inhibition of Cholinesterase R/S (resistant ratio): ratio of the resistant strain to the susceptible strain (I50), 30 min; for IC50 / rate of inhibition (%) in 10^-3 M, R: resistant strain; for IC50: 50% inhibition concentration, 30° C. 30 min with inhibitor, read-out: Inhibition of Cholinesterase I50 (M) R
Procedure: After centrifuged (30,000 g, 10 min.), the supernatant was used as the source of ChE.
(§1) (2) Inhibition: 1.0 ml of enzyme solution was incubated with 0.1 ml of inhibitor which diluted with acetone at 30° C. for 30 min. ((2) solution).
(§2) (3) Determination of ChE activity: 1.0 ml of acetylthiochline (3.5/2×10^-2 M), 1.0 ml of DTNB (5,5'-dithiobis-2-nitrobenzoic acid, 2.5×10^-4 M) and 4.0 ml of phosphate buffer (1/15 M, pH 7.4) were added to the (2) solution and incubated at 30° C. for 10 min.

[2] = target: cholinesterase (ChE), susceptible strain; assay: Inhibition of cholinesterase (acetylthiocholine method), susceptible strain enzyme; type: biochemical, green rice leafhopper, Nephotettix cincticeps; settings: for IC50: 50% inhibition concentration, 30° C. 30 min with inhibitor, read-out: Inhibition of Cholinesterase I50 (M) S
Procedure: The activity of ChE was performed by the acethyethiocholine method [Ellman (1961), Biochemical Pharmacology 7: 88-95].
[…]. After centrifuged (30,000 g, 10 min.), the supernatant was used as the source of ChE.
as §1
as §2, with “min. After incubation, […] of eserine (2×10^-3 M) was added in order to stop the enzyme reaction and the optical density of the yellow solution was measured at 412 mμ on the spectrophotometer.” for “min.”

[3] = system: resistant green rice leafhoppers (R); settings: ratio of the resistant strain to the susceptible strain (LD50); 1440 min
Procedure: (1) A 20-mg portion of a given test compound was weighed out and dissolved in 10 ml of acetone. The resultant solution was diluted at proper times with acetone.
(2) With a micro-syringe, the acetone solution of the test compound was topically applied to the thoracic region of female green rice leafhoppers at a fixed dose of 0.2 μl per head.
(3) The female green rice leafhoppers thus treated were placed in a plastic cup prepared in advance (measuring 7 cm in diameter and 3.5 cm in depth and containing rice seeds) and kept at a constant temperature of 26±1° C. After 24 hours' standing, the dead insects were counted.
In the case of a mixed insecticide, the LD50 was shown as a total dosage.

[4] = system: green rice leafhoppers of the strain RN; assay: Test Example 3: dust spray test (20 mesh metal gauze cylinder); type: in vivo, Nephotettix cincticeps; settings: for death ratio (%), mixture with Compound No. 1 / death ratio (%), mixture with Compound No. 6* / death ratio (%), mixture with Compound No. 24* / death ratio (%), mixture with Compound No. 35* / death ratio (%), mixture with Compound No. 40* / death ratio (%), mixture with Compound No. 49* / death ratio (%), mixture with Compound No. 81* / death ratio (%), mixture with Compound No. 118* / death ratio (%), mixture with Carbofuran / death ratio (%), mixture with Methomyl: Table 9, RN; for death ratio (%), mixture with Compound No. 1: dust mixed with 1; for death ratio (%), mixture with Compound No. 6*: dust mixed with 6*; for death ratio (%), mixture with Compound No. 24*: dust mixed with 24*; for death ratio (%), mixture with Compound No. 35*: dust mixed with 35*; for death ratio (%), mixture with Compound No. 40*: dust mixed with 40*; for death ratio (%), mixture with Compound No. 49*: dust mixed with 49*; for death ratio (%), mixture with Compound No. 81*: dust mixed with 81*; for death ratio (%), mixture with Compound No. 118*: dust mixed with 118*; for death ratio (%), mixture with Carbofuran: dust mixed with Carbofuran; for death ratio (%), mixture with Methomyl: dust mixed with Methomyl; for Effect of individual compound (RN), death ratio (%) (Table 9): dust, compound alone, RN strain
Procedure: The insecticides in the form of dust were tested for insecticidal activity.
The test for insecticidal activity was performed by the following procedure. […] The dust of a test compound (pulverized by means of a shaking pulverizer made by Taira Kosakusho, Ltd.) was applied onto the tube contents at a prescribed rate by spraying from outside the metal gauze by means of a bell-jar duster. The dust of the test compound was prepared uniformly mixing 2 parts of the dust of the individual compound or 1 part each of the dusts of the mixture components (total 2 parts) and 98 parts of a carrier obtained by mixing talc and clay in equal volumes.

SMILES | Inhibition of Cholinesterase R/S (resistant ratio) [1] | IC50 [1] [M] | IC50 [2] [M] | Insecticidal Activity R/S (resistant ratio) [3] | other results
CCCCNC(=O)Oc1ccc(C)c(C)c1 [Compound 38] | 0.04 | 2e-05 | 0.00056 |  | 
CCCC(C)c1cccc(OC(=O)NCC)c1 (centres unmarked) [Compound 20] | 1.2 | 4.1e-06 | 3.4e-06 | 1.5 | 
CCOc1cccc(OC(=O)NC)c1 [Compound 92, reference compound] | 17.6 | 0.0003 | 1.7e-05 |  | death ratio (%), mixture with Compound No. 1 [4]: 0%; death ratio (%), mixture with Compound No. 6* [4]: 0%; death ratio (%), mixture with Compound No. 24* [4]: 0%; death ratio (%), mixture with Compound No. 35* [4]: 10.0%; death ratio (%), mixture with Compound No. 40* [4]: 5.0%; death ratio (%), mixture with Compound No. 49* [4]: 0%; death ratio (%), mixture with Compound No. 81* [4]: 0%; death ratio (%), mixture with Compound No. 118* [4]: 25.0%; death ratio (%), mixture with Carbofuran [4]: 20.0%; death ratio (%), mixture with Methomyl [4]: 40.0%; Effect of individual compound (RN), death ratio (%) (Table 9) [4]: 0%
CCCCNC(=O)Oc1ccccc1 [Compound 143] |  | > 0.001 | > 0.001 |  | rate of inhibition (%) in 10^-3 M, R [1]: 46.0%; rate of inhibition (%) in 10^-3 M, S [2]: 3.3%
CNC(=O)Oc1ccccc1OC [Compound 76, reference compound] | 32.3 | 0.00055 | 1.7e-05 |  | death ratio (%), mixture with Compound No. 1 [4]: 15.0%; death ratio (%), mixture with Compound No. 6* [4]: 0%; death ratio (%), mixture with Compound No. 24* [4]: 20.0%; death ratio (%), mixture with Compound No. 35* [4]: 10.0%; death ratio (%), mixture with Compound No. 40* [4]: 0%; death ratio (%), mixture with Compound No. 49* [4]: 0%; death ratio (%), mixture with Compound No. 81* [4]: 35.0%; death ratio (%), mixture with Compound No. 118* [4]: 45.0%; death ratio (%), mixture with Carbofuran [4]: 60.0%; death ratio (%), mixture with Methomyl [4]: 55.0%; Effect of individual compound (RN), death ratio (%) (Table 9) [4]: 0%
C=CCNC(=O)Oc1cccc(C(C)CCC)c1 (centres unmarked) [Compound 23] | 0.3 | 1.3e-06 |  | 0.7 | 
CCOc1ccccc1OC(=O)NC [Compound 79, reference compound] | 12.0 | 0.0003 | 2.5e-05 |  | death ratio (%), mixture with Compound No. 1 [4]: 0%; death ratio (%), mixture with Compound No. 6* [4]: 0%; death ratio (%), mixture with Compound No. 24* [4]: 0%; death ratio (%), mixture with Compound No. 35* [4]: 0%; death ratio (%), mixture with Compound No. 40* [4]: 10.0%; death ratio (%), mixture with Compound No. 49* [4]: 0%; death ratio (%), mixture with Compound No. 81* [4]: 5.0%; death ratio (%), mixture with Compound No. 118* [4]: 25.0%; death ratio (%), mixture with Carbofuran [4]: 40.0%; Effect of individual compound (RN), death ratio (%) (Table 9) [4]: 0%
C=CCNC(=O)Oc1ccccc1 [Compound 144, phenyl-N-allylcarbamate] | < 0.5 | 0.00052 | > 0.001 |  | rate of inhibition (%) in 10^-3 M, S [2]: 10.00%
CNC(=O)Oc1ccc(SC)c(C)c1 [Compound 135, reference compound] | 3.5 | 3.5e-05 | 1e-05 |  | 
CNC(=O)Oc1ccccc1NC(C)C [Compound 110, reference compound] | 73.9 | 0.00017 | 2.3e-06 |  | 
CCCCNC(=O)Oc1cccc(C(C)C)c1 [Compound 14] | 0.2 | 1.7e-05 | 7.4e-05 |  | 
CCCCNC(=O)Oc1cc(C)cc(C(C)C)c1 [Compound 48] | < 0.09 | 8.8e-05 | > 0.001 |  | 
CCC(C)Oc1ccccc1OC(=O)NC (centres unmarked) [Compound 86, reference compound] | 31.9 | 6.7e-05 | 2.1e-06 |  | 
CCCCNC(=O)Oc1cccc(C)c1 [Compound 27] | < 0.3 | 0.00027 | > 0.001 |  | 
CCCCNC(=O)Oc1cccc(C(C)CCC)c1 (centres unmarked) [Compound 22] | 0.1 | 6.3e-06 | 5.1e-05 | 0.9 | 
CCNC(=O)Oc1cccc(CC)c1 [Compound 30] | 0.8 | 0.00016 | 0.0002 | 1.7 | 
CNC(=O)Oc1ccccc1 [Compound 140, reference compound] |  | > 0.001 | 0.00013 |  | rate of inhibition (%) in 10^-3 M, R [1]: 42.5%

SMILES | Inhibition of Cholinesterase R/S (resistant ratio) [1] | IC50 [1] [M] | IC50 [2] [M] | Insecticidal Activity R/S (resistant ratio) [3] | other results
C=CCNC(=O)Oc1cccc(C(C)(C)C)c1 [Compound 34] | 0.3 | 8.9e-06 | 2.6e-05 | 1.1 | 
C=CCOc1ccccc1OC(=O)NC [Compound 88, reference compound] | 15.7 | 0.00011 | 7e-06 |  | 
CCCNC(=O)Oc1ccccc1 [Compound 142, phenyl-N-n-propylcarbamate] | < 0.6 | 0.00066 | > 0.001 |  | rate of inhibition (%) in 10^-3 M, S [2]: 12.0%
CCNC(=O)Oc1cccc(OCC)c1 [Compound 93] | 0.8 | 0.00035 | 0.00044 |  | 
CCCCNC(=O)Oc1cccc(C(C)CC)c1 (centres unmarked) [Compound 18] | 0.09 | 4.3e-06 | 5e-05 | 0.9 | 
CCNC(=O)Oc1cccc(C(C)CC)c1 (centres unmarked) [Compound 16] | 0.9 | 5.6e-06 | 6.5e-06 | 3.7 | 
CCNC(=O)Oc1cccc(C(C)C)c1 [Compound 12] | 0.5 | 1.7e-05 | 3.7e-05 | 3.7 | 
CCCCNC(=O)Oc1cc(C)cc(C)c1 [Compound 43] | 0.04 | 2.7e-05 | 0.00068 |  | 
CNC(=O)Oc1cc(C)c(C)cc1C [Compound 59, reference compound] | 24.8 | 5.7e-05 | 2.3e-06 |  | 
CCNC(=O)Oc1ccccc1C(C)C [Compound 2, 2-isopropylpheny-N-ethylcarbamate] | 1.6 | 5.2e-05 | 3.2e-05 | 2.1 | 
C#CCOc1cccc(OC(=O)NC)c1 [Compound 100, reference compound] | 24.3 | 0.00085 | 3.5e-05 |  | 
CCNC(=O)Oc1ccccc1 [Compound 141, phenyl-N-ethylcarbamate] |  | > 0.001 | > 0.001 |  | rate of inhibition (%) in 10^-3 M, R [1]: 43.4%; rate of inhibition (%) in 10^-3 M, S [2]: 30.4%
CCCNC(=O)Oc1cc(C)cc(C(C)C)c1 [Compound 47, 3-methyl-5-isopropylphenyl-N-n-propylcarbamate] |  |  |  | 1.4 | mortality at 100 mg/cylinder ([4]; 2% dust, 100 mg, 24 hr, read-out: Mortality (%) after 24 hr., 100 mg Spray (Table 7)): 70%; mortality at 250 mg/cylinder ([4]; 2% dust, 250 mg, 24 hr, read-out: Mortality (%) after 24 hr., 250 mg Spray (Table 7)): 100%
C#CCOc1ccccc1OC(=O)NC [Compound 90, reference compound] | 9.6 | 7.9e-05 | 8.2e-06 |  | 
CNC(=O)Oc1ccccc1N(C)C [Compound 106, reference compound] | 13.5 | 0.00013 | 9.6e-06 |  | 
C=CCOc1cccc(OC(=O)NC)c1 [Compound 98, reference compound] | 87.8 | 0.00036 | 4.1e-06 |  | 

— patent US4226883A, “Carbamate derivatives and method for manufacture thereof” (priority 1974, dated 1980)
